Source: PubChem BioAssay (NCI)
Where “and” joins values, the source holds several entries; their conditions need not be identical. Equal entries are not always repeated.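 Method: 48-hour compound exposure of cells in 96-well plates, five concentrations, linear interpolation of endpoints. Abbreviation: GI50, concentration required for 50% inhibition of growth. TGI marks complete inhibition of growth.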

How the values were obtained:
Experiment in all cases: NCI anticancer screen, dose series, 48 h
[1] = system: SF-295 CNS
[2] = system: 786-0 renal
[3] = system: HT29 colon
[4] = system: HS 578T breast
[5] = system: IGROV1 ovarian
[6] = system: NCI/ADR-RES ovarian
[7] = system: PC-3 prostate
[8] = system: HL-60(TB) leukemia
[9] = system: NCI-H460 lung
[10] = system: UO-31 renal

SMILES | GI50 [1] [µM] | TGI [1] [µM] | GI50 [2] [µM] | TGI [2] [µM] | GI50 [3] [µM] | TGI [3] [µM] | GI50 [4] [µM] | TGI [4] [µM] | GI50 [5] [µM] | TGI [5] [µM] | GI50 [6] [µM] | TGI [6] [µM] | GI50 [7] [µM] | TGI [7] [µM] | GI50 [8] [µM] | TGI [8] | TGI [9] [µM] | TGI [10] [µM] | GI50 [9] [µM] | GI50 [10] [µM]
COc1ncnc2c(-c3ccco3)cn(COCc3ccccc3)c12 | > 50 | > 50 | 17.7 | > 50 | > 50 | > 50 | 18.6 | > 50 | > 50 | > 50 | > 50 | > 50 | 3.5 | > 50 | > 50 | > 50 µM | – | – | – | –
Cc1cccc(CC(C)(C)C)c1NC(=O)C(=O)C(C(=O)c1ccc2ccccc2c1)C1OC(=O)c2ccccc21 (stereo not given) | – | 21.6 | – | 21.7 | – | 51.6 | – | – | – | 46.8 | – | – | – | – | – | – | 17 | 31.1 | – | –
CC1SC2(CCCCC2)N(NC(=O)c2[nH]c3ccc(F)cc3c2-c2ccccc2)C1=O (stereo not given) | 35.8 | > 100 | 28.4 | 89.2 | > 100 | > 100 | 66.8 | > 100 | 16 | 97.3 | – | – | 41.2 | > 100 | – | – | > 100 | > 100 | > 100 | > 100
Cc1cccc(N2C(=O)/C(=C/c3ccc(N(CCC#N)CCC#N)cc3C)N=C2c2cc([N+](=O)[O-])ccc2Cl)c1 | – | > 100 | – | > 100 | – | > 100 | – | – | – | > 100 | – | – | – | – | – | > 100 µM | > 100 | > 100 | – | –
CN1CC(C(=O)NC2(C)OC3(O)C4CCCN4C(=O)C(Cc4ccccc4)N3C2=O)C=C2c3cccc4[nH]cc(c34)CC21 (stereo not given) | – | 57.1 | – | 45 | – | 71.1 | – | 29 | – | 50.8 | – | 95.1 | – | 59.6 | – | 39.1 µM | – | 77.9 | – | –
CCOC(=N)CC(=O)NC(C)c1ccccc1 (stereo not given) | – | > 100 | – | > 100 | – | > 100 | – | – | – | > 100 | – | – | – | – | – | > 100 µM | > 100 | > 100 | – | –
O=C1c2cccc3cccc(c23)C(=O)N1CCCN1CCN(CCCN2C(=O)c3cccc4cccc(c34)C2=O)CC1 | – | > 100 | – | > 100 | – | > 100 | – | – | – | > 100 | – | – | – | – | – | > 100 µM | > 100 | > 100 | – | –
C=C(C)[C@]12CC(C)C34OC(/C=C\C=C\CCCCCCCCC)(O[C@@H]1[C@@H]3[C@@H]1O[C@]1(CO)[C@@H](O)[C@]1(O)C(=O)C(C)=C[C@@H]41)O2 (stereo not given in full) | – | – | – | 21.5 | – | 8.26 | – | 3.97 | – | 30 | – | 45.2 | < 0.0001 | 12.9 | < 0.0001 | > 20.5 µM | 16 | 24.8 | < 0.0001 | –
CCN1CC2(C)CC[C@@H](OC)C34[C@@H]2[C@H](OC(C)=O)C2(OCO[C@@]25C[C@H](OC)C2C[C@]3(O)[C@@H]5[C@H]2O)[C@H]14 | – | > 100 | – | > 100 | – | > 100 | – | – | – | – | – | – | – | – | – | > 100 µM | > 100 | > 100 | – | –
COc1cc(C2c3cc4c(cc3[C@@H](Nc3cccc(O)c3)C3COC(=O)[C@H]23)OCO4)cc(OC)c1O (stereo not given in full) | 0.585 | 8.07 | 0.98 | 5.36 | – | 18.8 | – | – | – | 30.4 | – | 21.5 | – | 15.4 | 0.23 | 0.802 µM and 2.73 µM | 3.55 | 7.4 | 0.145 | 0.779
C/C(=N\NC(=S)N1CCC(C2CCN(C(=S)N/N=C(\C)c3ccccn3)CC2)CC1)c1ccccn1 | – | > 100 | – | > 100 | – | > 100 | – | – | – | > 100 | – | – | – | – | – | > 100 µM | > 100 | > 100 | – | –
O=C1CC2Sc3ccccc3N=C2N1c1ccc(Cl)cc1Cl (stereo not given) | – | > 100 | – | > 100 | – | > 100 | – | – | – | > 100 | – | – | – | – | – | 72.1 µM | > 100 | > 100 | – | –
CN1C(=O)C23CC4=CC=CC(O)C4N2C(=O)C1(CO)SS3 (stereo not given) | – | 0.389 | – | 0.222 | – | 11.4 | – | – | – | 0.297 | – | 0.0661 | – | 0.387 | – | – | 0.801 | 2.03 | – | –
O=C1/C(=C/c2ccccc2)CN(C(=O)OCC(Cl)(Cl)Cl)C/C1=C\c1ccccc1 | – | 3.92 | – | 5.46 | – | 3.63 | – | – | – | 15.4 | – | – | – | – | – | 3.38 µM | 5.66 | 12.1 | – | –
Cc1ns/c(=N\C(=S)N(C)C)n1C | – | > 100 | – | > 100 | – | > 100 | – | – | – | > 100 | – | – | – | – | – | > 100 µM | > 100 | > 100 | – | –
C#Cc1ccc(-n2c(/C=C/c3cc(OC)c(OC)c(OC)c3)nc3ncccc3c2=O)cc1 | – | – | 5.31 | > 100 | 3.92 | 15.1 | 3.67 | 23 | 6.08 | > 100 | 3.61 | 34.5 | 3.96 | > 100 | 3.84 | 25.6 µM | 25.3 | > 100 | 4.11 | 4.09
CCOC(=O)C1=C(c2ccccc2)N(Cc2ccccc2)C2(O)C=CC(=O)C3C(=O)N(c4ccccc4)C(=O)C132 (stereo not given) | 2.9 | 11.5 | 2.11 | 5.34 | 1.93 | 4.83 | 3.46 | 18.3 | – | – | 2.98 | 17 | 2.67 | 9.32 | 1.8 | 4.58 µM | 3.49 | – | 1.53 | –
COc1ccc(-n2nc(C)c3c2N(C)C2(C)C[C@@H]4C3(C)[C@@H]3CC4(C2)N(C)c2c(c(C)nn2-c2ccc(OC)cc2)[C@H]3C)cc1 (stereo not given in full) | – | – | 5.47 | 29.6 | 3.39 | > 100 | 4.27 | 98 | 19.5 | > 100 | 8.03 | > 100 | – | – | – | – | > 100 | – | 3.69 | –
O=C1c2ccccc2C(=O)c2c1ccc1c3ccccc3n(Cc3ccccc3)c21 | – | > 100 | – | > 100 | – | > 100 | – | – | – | > 100 | – | – | – | – | – | > 100 µM | > 100 | > 100 | – | –
O=C(CC(C(=O)O)N1CCOCC1)c1ccccc1 (stereo not given) | – | > 100 | – | 30.1 | – | 32.1 | – | 88.9 | – | 63.2 | – | > 100 | – | 36 | – | 43.6 µM | 42.1 | – | – | –
O=C(OCc1nc2ccc(Br)cc2c(=O)n1-c1ccccc1)c1ccccc1O | – | > 100 | – | > 100 | – | > 100 | – | – | – | > 100 | – | – | – | – | – | > 100 µM | > 100 | > 100 | – | –
